From the supplement of paper PMC10331698 come the findings set out here.

± gives the standard deviation of the averaged measurements.

Common to all, as to experiment: level (log10 ratio to DMSO vehicle control); higher = higher biomarker level / cell amount than vehicle control
What all share (conditions): in DMSO

Compound in one assay: NC(=O)C(F)(F)C(F)(F)C(F)(F)F [Heptafluorobutyramide]
The procedure:
(§1)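 BioMAP Diversity Plus panel of 12 human primary cell co-culture systems (3C, 4H, LPS, SAg, BT, BF4T, BE3C, CASM3C, HDF3CGF, KF3CT, MyoF, Mphg). Compounds were added 1 h before stimulation and left for 24 h (MyoF 48 h; BT 72 h for soluble read-outs or 6 d for IgG). Biomarkers were read by ELISA, cytotoxicity by SRB, PBMC viability and proliferation by Alamar Blue. Each well value was divided by the mean of 8 DMSO control wells on the same plate and log10 transformed; duplicate blinded samples were tested at 4 concentrations.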

Compound in another assay: NC(=O)C(F)(F)C(F)(F)F [Pentafluoropropionamide]
As to the method: as §1

Compound in assay [1]: C=CC(=O)OCC(F)(F)C(F)(F)C(F)(F)C(F)(F)C(F)(F)C(F)(F)C(F)(F)F [1H,1H-Perfluorooctyl acrylate]
As to the method: as §1

Compound in assay [2]: COC(=O)CCC(F)(F)C(F)(F)C(F)(F)C(F)(F)F [Methyl 2H,2H,3H,3H-perfluoroheptanoate]
As to the method: as §1

Compound in assay [3]: O=C(O)C(F)(F)C(F)(F)C(F)(F)OC(F)(C(F)(F)F)C(F)(F)F [Perfluoro-4-isopropoxybutanoic acid]
The procedure: as §1

Compound in assay [4]: FC(F)(F)C(F)(C(F)(F)F)C(F)(F)C(F)(F)CC1CO1 [3-(Perfluoro-3-methylbutyl)-1,2-propenoxide]
As to the method: as §1

Compound in assay [5]: OCCC(F)(F)C(F)(F)C(F)(F)C(F)(F)C(F)(F)C(F)(F)F [6:2 Fluorotelomer alcohol]
The procedure: as §1

With CASM3C:CCL2/MCP-1, the “level (log10)” value with Heptafluorobutyramide (6700 nM) was -0.004 ± 0.0057; with Heptafluorobutyramide (20000 nM), -0.0145 ± 0.0021; with Heptafluorobutyramide (60000 nM) it was 0.015 ± 0.037; with Pentafluoropropionamide (6700 nM), -0.003 ± 0.021; in the assay with Pentafluoropropionamide (20000 nM) it was -0.01 ± 0.0014; in the assay with Pentafluoropropionamide (60000 nM) it was 0.0075 ± 0.013. The “level (log10)” value in assay [1] (6700 nM) is -0.0035 ± 0.0078; in assay [1] (20000 nM) it was -0.0095 ± 0.0035; in assay [1] (60000 nM), -0.004 ± 0.0071; in assay [2] (6700 nM), -0.0075 ± 0.011; in assay [2] (20000 nM), -0.003 ± 0.0071; in assay [2] (60000 nM) it was 0.004 ± 0.03. The “level (log10)” value in assay [3] (6700 nM) was -0.0255 ± 0.012; in assay [3] (20000 nM), -0.0305 ± 0.005; in assay [3] (60000 nM) it was 0.027 ± 0.034; in assay [4] (6700 nM) it was -0.003 ± 0.0071; in assay [4] (20000 nM) it was 0.004 ± 0.031; in assay [5] (6700 nM), -0.0205 ± 0.00071. The “level (log10)” value in assay [5] (20000 nM) was -0.019 ± 0.0028.
For the test system CASM3C:CD87/uPAR, the “level (log10)” value with Heptafluorobutyramide (6700 nM) was -0.0065 ± 0.026; with Heptafluorobutyramide (20000 nM), -0.0115 ± 0.032; in the assay with Heptafluorobutyramide (60000 nM) it was -0.033 ± 0.054; with Pentafluoropropionamide (6700 nM), -0.031 ± 0.05; with Pentafluoropropionamide (20000 nM) it was -0.012 ± 0.0071; with Pentafluoropropionamide (60000 nM) it was -0.019 ± 0.03. Moreover, the “level (log10)” value in assay [1] (6700 nM) was 0.0095 ± 0.028; in assay [1] (20000 nM), 0.0135 ± 0.021; in assay [1] (60000 nM), 0.0235 ± 0.019; in assay [2] (6700 nM), -0.029 ± 0.035; in assay [2] (20000 nM) it was -0.0275 ± 0.026; in assay [2] (60000 nM), -0.0185 ± 0.022. The “level (log10)” value in assay [3] (6700 nM) was -0.0225 ± 0.046; in assay [3] (20000 nM) it was -0.0265 ± 0.052; in assay [3] (60000 nM) it was 0.003 ± 0.014; in assay [4] (6700 nM) it was -0.013 ± 0.016; in assay [4] (20000 nM) it was 0.002 ± 0.017; in assay [5] (6700 nM), -0.026 ± 0.013. The “level (log10)” value in assay [5] (20000 nM) was -0.002 ± 0.0042.
Turning to CASM3C:CD106/VCAM-1, the “level (log10)” value was -0.0215 ± 0.053 with Heptafluorobutyramide (6700 nM); -0.0085 ± 0.033 in the assay with Heptafluorobutyramide (20000 nM); -0.0265 ± 0.059 with Heptafluorobutyramide (60000 nM); -0.016 ± 0.016 with Pentafluoropropionamide (6700 nM); -0.014 ± 0.02 in the assay with Pentafluoropropionamide (20000 nM); -0.022 ± 0.011 with Pentafluoropropionamide (60000 nM). Further, the “level (log10)” value is 0.007 ± 0.016 in assay [1] (6700 nM); 0.014 ± 0.0014 in assay [1] (20000 nM); -0.0055 ± 0.0092 in assay [1] (60000 nM); -0.021 ± 0.027 in assay [2] (6700 nM); -0.019 ± 0.0071 in assay [2] (20000 nM); -0.0085 ± 0.005 in assay [2] (60000 nM). Moreover, the “level (log10)” value in assay [3] (6700 nM) was -0.003 ± 0.0071; in assay [3] (20000 nM), -0.016 ± 0.016; in assay [3] (60000 nM) it was -0.007 ± 0.021; in assay [4] (6700 nM), -0.022 ± 0.014; in assay [4] (20000 nM) it was -0.0145 ± 0.019; in assay [5] (6700 nM) it was 0.0105 ± 0.018. Moreover, the “level (log10)” value in assay [5] (20000 nM) came out at 0.017 ± 0.0099.
Turning to CASM3C:CD141/Thrombomodulin, the “level (log10)” value with Heptafluorobutyramide (6700 nM) is 0.017 ± 0.033; in the assay with Heptafluorobutyramide (20000 nM) it was 0.0065 ± 0.033; with Heptafluorobutyramide (60000 nM) it was -0.016 ± 0.041; in the assay with Pentafluoropropionamide (6700 nM) it was -0.023 ± 0.034; with Pentafluoropropionamide (20000 nM), -0.0315 ± 0.011; with Pentafluoropropionamide (60000 nM), -0.0555 ± 0.015. For the same test system, the “level (log10)” value in assay [1] (6700 nM) was -0.002 ± 0.0028; in assay [1] (20000 nM) it was 0.0035 ± 0.011; in assay [1] (60000 nM), 0.002 ± 0.017; in assay [2] (6700 nM), -0.042 ± 0.024; in assay [2] (20000 nM), -0.017 ± 0.048; in assay [2] (60000 nM), 0.003 ± 0.017. The “level (log10)” value in assay [3] (6700 nM) was 0 ± 0.018; in assay [3] (20000 nM), -0.005 ± 0.02; in assay [3] (60000 nM), 0.0135 ± 0.029; in assay [4] (6700 nM), 0.003; in assay [4] (20000 nM), 0 ± 0.044; in assay [5] (6700 nM), 0.0235 ± 0.0092. The “level (log10)” value in assay [5] (20000 nM) was 0.005 ± 0.023.
As to CASM3C:CD142/Tissue Factor, the “level (log10)” value in the assay with Heptafluorobutyramide (6700 nM) is 0.007 ± 0.034; in the assay with Heptafluorobutyramide (20000 nM) it was -0.0105 ± 0.05; with Heptafluorobutyramide (60000 nM), -0.031 ± 0.041; with Pentafluoropropionamide (6700 nM) it was -0.0025 ± 0.022; in the assay with Pentafluoropropionamide (20000 nM), -0.0095 ± 0.018; with Pentafluoropropionamide (60000 nM), -0.0295 ± 0.026. Further, the “level (log10)” value in assay [1] (6700 nM) is 0.0095 ± 0.005; in assay [1] (20000 nM), -0.004 ± 0.0014; in assay [1] (60000 nM), -0.0005 ± 0.0092; in assay [2] (6700 nM), -0.021 ± 0.027; in assay [2] (20000 nM) it was 0.001 ± 0.013; in assay [2] (60000 nM) it was 0.015 ± 0.017. Moreover, the “level (log10)” value in assay [3] (6700 nM) is -0.018 ± 0.033; in assay [3] (20000 nM), -0.011 ± 0.0042; in assay [3] (60000 nM), 0.0205 ± 0.025; in assay [4] (6700 nM), -0.038 ± 0.047; in assay [4] (20000 nM) it was -0.033 ± 0.014; in assay [5] (6700 nM), 0.004 ± 0.014. The “level (log10)” value in assay [5] (20000 nM) was determined as 0.0075 ± 0.0064.
Regarding CASM3C:CXCL8/IL-8, the “level (log10)” value is -0.005 ± 0.0057 in the assay with Heptafluorobutyramide (6700 nM); -0.007 ± 0.0099 with Heptafluorobutyramide (20000 nM); 0.0075 ± 0.015 in the assay with Heptafluorobutyramide (60000 nM); -0.007 ± 0.014 with Pentafluoropropionamide (6700 nM); -0.017 ± 0.0071 with Pentafluoropropionamide (20000 nM); -0.0005 ± 0.012 with Pentafluoropropionamide (60000 nM). The “level (log10)” value in assay [1] (6700 nM) is 0.004 ± 0.0099; in assay [1] (20000 nM), -0.006 ± 0.011; in assay [1] (60000 nM), 0.016 ± 0.0028; in assay [2] (6700 nM), -0.0135 ± 0.011; in assay [2] (20000 nM) it was -0.0115 ± 0.005; in assay [2] (60000 nM), -0.0085 ± 0.013. In addition, the “level (log10)” value was 0.0115 ± 0.019 in assay [3] (6700 nM); 0.0295 ± 0.016 in assay [3] (20000 nM); 0.076 ± 0.017 in assay [3] (60000 nM); -0.0065 ± 0.005 in assay [4] (6700 nM); -0.003 ± 0.0014 in assay [4] (20000 nM); 0.019 ± 0.0014 in assay [5] (6700 nM). Further, in assay [5] (20000 nM), the “level (log10)” value worked out at 0.0195 ± 0.015.
Consider CASM3C:CXCL9/MIG, for which the “level (log10)” value is -0.0035 ± 0.00071 in the assay with Heptafluorobutyramide (6700 nM); -0.01 ± 0.0014 with Heptafluorobutyramide (20000 nM); 0.0005 ± 0.011 with Heptafluorobutyramide (60000 nM); 0 ± 0.0014 in the assay with Pentafluoropropionamide (6700 nM); -0.0035 ± 0.005 with Pentafluoropropionamide (20000 nM); -0.008 ± 0.0042 with Pentafluoropropionamide (60000 nM). The “level (log10)” value in assay [1] (6700 nM) is 0.001 ± 0.0028; in assay [1] (20000 nM) it was -0.0015 ± 0.011; in assay [1] (60000 nM) it was 0.0005 ± 0.0035; in assay [2] (6700 nM), -0.006 ± 0.0085; in assay [2] (20000 nM), 0.0035 ± 0.0035; in assay [2] (60000 nM) it was 0.015 ± 0.0028. The “level (log10)” value in assay [3] (6700 nM) was 0.01 ± 0.0014; in assay [3] (20000 nM) it was 0.0125 ± 0.0021; in assay [3] (60000 nM), 0.044 ± 0.048; in assay [4] (6700 nM), -0.015 ± 0.014; in assay [4] (20000 nM) it was -0.001 ± 0.017; in assay [5] (6700 nM), -0.011 ± 0.025. Moreover, in assay [5] (20000 nM), the “level (log10)” value was -0.0165 ± 0.0035.
